From patent US8309546B2, “Morpholinopurine derivatives” (Daiichi Sankyo Company, Limited, priority 2008, dated 2012)
“And” between values parts separate entries of the source, which are not always exact repeats. Equal values may be shown once.

How the values were obtained:
[1] = molecular target: T1, human mTOR (His-tagged mTOR (1362C)) (Homo sapiens, UniProt P42345); experiment: mTOR kinase activity inhibition assay; type: biochemical; settings: HTRF, read-out: IC50 against mTOR
T1 construct: the 1362 to 2549 amino acid portion on the C terminus side of human mTOR; His tag (N); made in house
T1 sequence (P42345 1362-2549): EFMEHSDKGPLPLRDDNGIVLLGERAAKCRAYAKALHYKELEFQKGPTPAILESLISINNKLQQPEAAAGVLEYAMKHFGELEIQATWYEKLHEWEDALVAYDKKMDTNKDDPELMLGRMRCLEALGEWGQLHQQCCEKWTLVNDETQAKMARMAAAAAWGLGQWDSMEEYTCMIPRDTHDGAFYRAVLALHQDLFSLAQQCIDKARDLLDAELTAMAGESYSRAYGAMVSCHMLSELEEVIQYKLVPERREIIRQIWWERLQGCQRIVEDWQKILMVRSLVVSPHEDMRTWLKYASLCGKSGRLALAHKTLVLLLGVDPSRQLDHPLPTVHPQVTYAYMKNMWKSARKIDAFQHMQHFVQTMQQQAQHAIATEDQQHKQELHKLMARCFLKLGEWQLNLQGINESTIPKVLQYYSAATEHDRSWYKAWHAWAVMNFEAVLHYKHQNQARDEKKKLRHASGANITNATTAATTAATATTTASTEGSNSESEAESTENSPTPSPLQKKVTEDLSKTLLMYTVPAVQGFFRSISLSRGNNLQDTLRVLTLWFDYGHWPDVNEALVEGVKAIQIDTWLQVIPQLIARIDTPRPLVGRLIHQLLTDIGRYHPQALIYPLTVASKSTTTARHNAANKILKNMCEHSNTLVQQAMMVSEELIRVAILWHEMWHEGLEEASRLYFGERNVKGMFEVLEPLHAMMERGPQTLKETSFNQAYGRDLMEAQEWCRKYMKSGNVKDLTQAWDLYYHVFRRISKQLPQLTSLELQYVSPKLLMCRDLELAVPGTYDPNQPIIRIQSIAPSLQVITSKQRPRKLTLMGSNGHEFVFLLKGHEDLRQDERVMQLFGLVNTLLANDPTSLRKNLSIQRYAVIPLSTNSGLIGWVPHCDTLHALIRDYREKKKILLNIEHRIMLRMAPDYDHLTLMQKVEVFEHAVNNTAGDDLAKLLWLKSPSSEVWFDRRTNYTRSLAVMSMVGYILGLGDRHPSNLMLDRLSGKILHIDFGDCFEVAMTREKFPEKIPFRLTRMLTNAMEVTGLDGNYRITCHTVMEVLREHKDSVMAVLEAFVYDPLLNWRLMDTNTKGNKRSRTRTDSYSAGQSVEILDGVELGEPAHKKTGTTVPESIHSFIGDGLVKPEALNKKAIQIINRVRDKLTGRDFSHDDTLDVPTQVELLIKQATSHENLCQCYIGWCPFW
Description: The mTOR kinase activity was determined in the presence and absence of a test compound. A substrate peptide is phosphorylated by mTOR kinase activity. A complex of streptavidin-XL665 and anti-phosphorylated S6K (Thr389) antibody-anti-mouse IgG-cryptate binds to this phosphorylated peptide. At this time, irradiation of excitation light induces transfer of fluorescence resonance energy from the excited cryptate to XL665, emitting fluorescence at 665 nm. Utilizing this principle, mTOR kinase activity was detected. When the mTOR inhibitor is present, phosphorylation of a substrate peptide is inhibited, and the biding of the above-mentioned complex to the substrate peptide is inhibited.
A His tag was introduced into the N terminus end of the 1362 to 2549 amino acid portion on the C terminus side of human mTOR, and a cell line was prepared, so that His-tagged mTOR should be constantly expressed in a HEK293 cell. A cell lysate was prepared from this HEK293 cell which constantly expressed His-tagged mTOR (1362C), and a crude product of His-tagged mTOR (1362C) was obtained by a usual method utilizing His tag.
Subsequently, an mTOR enzyme solution was prepared which contained the above-mentioned His-tagged mTOR (1362C) enzyme and 8 μg/ml biotinylated peptide (Biotin-Ahx-[…]-amide [Sigma]), as well as 50 mM HEPES (pH 7.5), 20 mM MnCl2, 1 mg/ml BSA, a suitable amount of protease inhibitor cocktail (Complete EDTA free, Roche Ltd.), 100 ng/ml calyculin A, and 4 μg/ml cantharidin as other components.
The test compound was dissolved in dimethyl sulfoxide (DMSO) and serially diluted with 20 μm ATP solution (50 mM HEPES (pH 7.5), 20 μM ATP) to obtain concentrations required for the assay. 5 μl of this compound solution was added to each well of a 384-well small volume white plate manufactured by Greiner Bio-One Co., Ltd.
5 μl of the mTOR enzyme solution was added to the above-mentioned well containing the test compound and the resulting mixture was left standing for 3 hours room temperature to proceed an enzymatic reaction.
The same procedure was performed using a solution obtained by dissolving DMSO in 20 μM ATP solution as a positive control and a solution obtained by dissolving DMSO in 50 mM HEPES buffer (pH 7.5) as a negative control.
After the enzymatic reaction, 5 μl each of an europium solution (a solution obtained by dissolving anti-mouse IgG-cryptate [SCETI Medical Labo K.K.] and anti-phosphorylation S6K [Thr389] antibody [Cell Signaling Technology Inc.] in 50 mM HEPES [pH 7.5], 100 mM EDTA, and 1.5 mg/ml BSA) and an XL665 solution (a solution obtained by dissolving Streptavidin-XL 665 [SCETI Medical Labo K.K.] in 50 mM HEPES [pH 7.5], 100 mM EDTA, 0.8 M KF, and 1.5 mg/ml BSA) were added in this order and mixed and the resulting mixture was left standing overnight at 4° C. On the following day, the mixture was returned to room temperature and then irradiated with 337-nm excitation light and fluorescence at 620 and 665 nm was measured with RUBYstar (BMG LABTECH JAPAN Ltd.).
mTOR inhibitory activity (%) was calculated using the ratio calculated from the measured values as an indicator of enzyme activity. Here, the ratio was calculated by the following formula (1). Ratio=10,000×fluorescence at 665 nm/fluorescence at 620 nm (1)
mTOR enzyme inhibitory activity (%) was calculated by the following formula (2). mTOR enzyme inhibitory activity (%)=100×[(P−S)/(P−N)] (2) P: Ratio in positive control well N: Ratio in negative control well S: Ratio in well containing the test compound
Furthermore, an optimal curve was created using the concentrations of the serially diluted test compound solutions and mTOR enzyme inhibitory activity (%) at each concentration to obtain the concentration showing 50% inhibition as the IC50 value of mTOR enzyme inhibitory activity.

[2] = system: human endometrial cancer cell strain AN3CA; experiment: Cell growth inhibition test (MTT), AN3CA; type: cell-based; settings: AN3-CA, 72 h, 3 days culture, read-out: concentration exhibiting anti-cell effect (GI50)
Description: (§1) After a cultured cancer cell strain was treated with a test compound for a predetermined period, a cell growth inhibition test was performed by measuring the living cell count by the 3-(4,5-dimethylthiazol-2-yl)-2,5-diphenyltetrazoliumbromide (MTT) method.
(§2) Human endometrial cancer cell strain AN3CA, human ovary cancer cell strain IGROV1, and human colon cancer cell strain HT29 were seeded in a 96-well plate at 5000, 1000, and 5000 cells, respectively, per well. On the following day of seeding, a test compound having a predetermined concentration was added and the culture was continued at 37° C. in 5% CO2 for 3 days. On the final day of culture, an MTT reaction solution was added and the resulting mixture was reacted for 4 hours to form formazan by dehydrogenases contained in living cells. Subsequently, the culture broth was removed, DMSO was added to solubilize formazan, and the amount of produced formazan was determined by measuring absorbance at 540 nm using a microplate reader.
(§3) Since correlations of the amount of produced formazan and the living cell count had been confirmed, the cell growth rate was calculated by the following formula. Cell growth rate (T/C %) after addition of test compound=100×[(B−C)/(A−C)] A: Absorbance of well not containing test compound (final culture day) B: Absorbance of well containing test compound (final culture day) C: Absorbance of well immediately before addition of test compound (following day of cell seeding)
(§4) Furthermore, the cell growth rate at each concentration of serially diluted test compound solutions was obtained, and the concentration of the test compound resulting in a 50% growth rate was obtained as the GI50 value from two concentrations including 50% therebetween and the growth rates were selected.

PI3Kα = PI3Kα (Homo sapiens, UniProt P42336); experiment: PI3K kinase activity inhibition assay; type: biochemical; settings: Kinase-Glo Plus ATP detection, read-out: IC50 against PI3K
Chain of PI3Kα (P42336 whole entry, species assumed): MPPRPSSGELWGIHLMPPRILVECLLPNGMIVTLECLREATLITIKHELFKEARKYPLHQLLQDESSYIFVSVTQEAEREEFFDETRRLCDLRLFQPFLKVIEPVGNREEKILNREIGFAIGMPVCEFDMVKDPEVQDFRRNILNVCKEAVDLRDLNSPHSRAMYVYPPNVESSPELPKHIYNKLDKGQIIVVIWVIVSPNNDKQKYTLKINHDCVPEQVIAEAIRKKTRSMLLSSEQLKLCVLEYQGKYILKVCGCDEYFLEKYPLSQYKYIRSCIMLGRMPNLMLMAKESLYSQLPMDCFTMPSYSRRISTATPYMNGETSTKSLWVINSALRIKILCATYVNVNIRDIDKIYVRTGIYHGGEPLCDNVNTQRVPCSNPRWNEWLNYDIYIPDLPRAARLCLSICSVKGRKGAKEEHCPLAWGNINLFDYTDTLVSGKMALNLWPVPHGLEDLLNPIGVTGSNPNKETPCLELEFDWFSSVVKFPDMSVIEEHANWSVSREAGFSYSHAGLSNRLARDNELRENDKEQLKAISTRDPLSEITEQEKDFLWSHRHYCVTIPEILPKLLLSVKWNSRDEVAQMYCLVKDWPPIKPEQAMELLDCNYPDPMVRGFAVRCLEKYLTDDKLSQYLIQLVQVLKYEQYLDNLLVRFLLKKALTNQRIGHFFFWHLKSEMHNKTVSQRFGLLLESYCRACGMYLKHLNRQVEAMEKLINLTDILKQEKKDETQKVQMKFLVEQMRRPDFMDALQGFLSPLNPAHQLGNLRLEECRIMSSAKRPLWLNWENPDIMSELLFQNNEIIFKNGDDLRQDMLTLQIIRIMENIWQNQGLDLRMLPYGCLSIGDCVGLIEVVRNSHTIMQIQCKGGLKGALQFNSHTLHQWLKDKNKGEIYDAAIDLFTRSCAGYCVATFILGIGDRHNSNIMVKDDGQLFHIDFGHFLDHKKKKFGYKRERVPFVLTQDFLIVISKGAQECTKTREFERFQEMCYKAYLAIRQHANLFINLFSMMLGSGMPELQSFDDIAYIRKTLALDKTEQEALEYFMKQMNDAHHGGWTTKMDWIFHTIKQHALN
Chain of PI3Kα (P27986 whole entry partner, species assumed): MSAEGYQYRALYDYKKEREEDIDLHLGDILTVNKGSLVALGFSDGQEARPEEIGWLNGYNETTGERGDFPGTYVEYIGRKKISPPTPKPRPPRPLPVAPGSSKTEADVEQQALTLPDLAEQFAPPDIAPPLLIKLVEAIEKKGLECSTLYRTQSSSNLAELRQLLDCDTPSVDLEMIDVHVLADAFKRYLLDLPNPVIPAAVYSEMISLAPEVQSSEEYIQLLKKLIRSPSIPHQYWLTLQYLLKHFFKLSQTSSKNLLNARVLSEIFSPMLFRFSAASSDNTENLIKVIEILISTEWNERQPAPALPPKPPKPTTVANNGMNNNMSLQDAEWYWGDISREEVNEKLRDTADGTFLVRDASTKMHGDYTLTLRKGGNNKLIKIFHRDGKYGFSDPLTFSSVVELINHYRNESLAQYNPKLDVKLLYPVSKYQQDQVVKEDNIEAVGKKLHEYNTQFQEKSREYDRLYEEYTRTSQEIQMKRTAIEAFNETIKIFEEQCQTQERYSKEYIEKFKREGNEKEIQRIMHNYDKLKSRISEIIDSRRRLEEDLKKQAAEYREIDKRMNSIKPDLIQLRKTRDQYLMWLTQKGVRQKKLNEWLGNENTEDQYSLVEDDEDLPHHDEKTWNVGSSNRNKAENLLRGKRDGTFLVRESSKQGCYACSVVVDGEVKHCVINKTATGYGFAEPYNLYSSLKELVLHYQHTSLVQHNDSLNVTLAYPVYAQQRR
Description: PI3Kα kinase activity was determined in the presence and absence of a test compound. The test compound was dissolved in DMSO and diluted serially with an ATP solution (30 μm ATP, 50 mM HEPES, pH 7.4, 50 mM NaCl, 0.05% CHAPS, 10 mM MgCl2, and 5 mM dithiothreitol [DTT]). First, 7 μl each of the serially diluted test compound solutions was added to each well of a black 384-well plate. Subsequently, 7 μl of a phosphatidylinositol 4,5-bisphosphate (PIP2) solution (45 μm PIP2, 50 mM HEPES, pH 7.4, 50 mM NaCl, 0.05% CHAPS, 10 mM MgCl2, and 5 mM DTT) was added to each well of the 384-well plate. Finally, 7 μl of a solution containing PI3Kα (50 nM PI3Kα, 50 mM HEPES, pH 7.4, 50 mM NaCl, 0.05% CHAPS, 10 mM MgCl2, and 5 mM DTT) was added to each well of the 384-well plate to initiate a reaction. The mixture was reacted at room temperature for 2 hours and then 21 μl of the Kinase-Glo Plusreagent (Promega) was, added to each well of the 384-well plate to terminate the reaction. After the termination of the reaction, the solution was left standing for 15 minutes and then luminescence was measured with ARVO (PerkinElmer Co., Ltd.) to detect ATP remaining in the reaction solution.
The amount of ATP consumed in the reaction was obtained for each well and used as an indicator of PI3Kαkinase activity. The PI3Kα kinase activity in wells not containing the test compound was calculated by the following formula (1). Furthermore, the PI3Kα kinase activity in wells containing the test compound was calculated by the following formula (2). The PI3Kα inhibitory activity (%) of the test compound was calculated by the following formula (3). PI3Kα kinase activity in wells not containing the test compound=B−C (1) PI3Kα kinase activity in wells containing the test compound=B−P (2) PI3Kα inhibitory activity (%) of test compound=100−100×[(B−P)/(B−C)] (3) B: Measured value in wells not containing PI3Kα or the test compound C: Measured value in wells containing PI3Kα and not containing the test compound P: Measured value in wells containing PI3Kα and the test compound
Furthermore, an optimal curve was calculated with Graph Pad Prism 4 using concentrations of the serially diluted test compound solutions and PI3Kα inhibitory activity (%) at each concentration to obtain the concentration showing 50% inhibition as the IC50 value of PI3Kα inhibitory activity.

[3] = system: human colon cancer cell strain HT29; experiment: Cell growth inhibition test (MTT), HT29; type: cell-based; settings: HT-29, 72 h, HT29, 3 days culture, read-out: concentration exhibiting anti-cell effect (GI50)
Description: as §1, §2, §3, §4

[4] = system: human ovary cancer cell strain IGROV1; experiment: Cell growth inhibition test (MTT), IGROV1; type: cell-based; settings: IGROV-1, 72 h, IGROV1, 3 days culture, read-out: concentration exhibiting anti-cell effect (GI50)
Description: as §1, §2, §3, §4

IC50 [1]	GI50 [2]	IC50 (PI3Kα)	GI50 [3]	GI50 [4]	Compound
30 to 100 nM	≤ 5000 nM	10 to 20 nM	≤ 5000 nM	≤ 5000 nM	CC(C)Cn1c(N2C[C@H](C)NC[C@H]2C)nc2c(N3CCOCC3)nc(-c3cnc(N)nc3)nc21 (relative stereo) [Example 50, 5-[8-(trans-2,5-Dimethylpiperazin-1-yl)-9-isobutyl-6-morpholin-4-yl-9H-purin-2-yl]pyrimidin-2-amine]
30 to 100 nM	≤ 5000 nM	10 to 20 nM	≤ 5000 nM	≤ 5000 nM	CNc1ncc(-c2nc(N3CCOCC3)c3nc(N4CCN(S(C)(=O)=O)CC4)n(CC4CC4)c3n2)cn1 [Example 4, 5-{9-(Cyclopropylmethyl)-8-[4-(methylsulfonyl)piperazin-1-yl]-6-morpholin-4-yl-9H-purin-2-yl}-N-methylpyrimidin-2-amine]
10 to 30 nM	≤ 5000 nM	10 to 20 nM and 20 to 50 nM	≤ 5000 nM	≤ 5000 nM	CS(=O)(=O)N1CCN(c2nc3c(N4CCOCC4)nc(-c4cnc(N)nc4)nc3n2CC2CCOC2)CC1 (stereo not drawn) [Example 5, 5-{8-[4-(Methylsulfonyl)piperazin-1-yl]-6-morpholin-4′-yl-9-(tetrahydrofuran-3-ylmethyl)-9H-purin-2-yl}pyrimidin-2-amine]
100 to 500 nM	≤ 5000 nM	< 10 nM	≤ 5000 nM	≤ 5000 nM	CS(=O)(=O)N1CCN(c2nc3c(N4CCOCC4)nc(-c4cnc(N)nc4C(F)(F)F)nc3n2CC2CC2)CC1 [Example 7, 5-{9-(Cyclopropylmethyl)-8-[4-(methylsulfonyl)piperazin-1-yl]-6-morpholin-4-yl-9H-purin-2-yl}-4-(trifluoromethyl)pyrimidin-2-amine]
< 10 nM	≤ 5000 nM	10 to 20 nM	≤ 5000 nM	≤ 5000 nM	CC(=O)N1CCN(c2nc3c(N4CCOCC4)nc(-c4cnc(N)nc4)nc3n2CC(F)(F)F)CC1 [Example 9, 5-[8-(4-Acetylpiperazin-1-yl)-6-morpholin-4-yl-9-(2,2,2-trifluoroethyl)-9H-purin-2-yl]pyrimidin-2-amine]
10 to 30 nM	≤ 5000 nM	< 10 nM	≤ 5000 nM	≤ 5000 nM	CN1CCN(c2nc3c(N4CCOCC4)nc(-c4cnc(N)nc4)nc3n2CC(F)(F)F)CC1 [Example 13, 5-[8-(4-Methylpiperazin-1-yl)-6-morpholin-4-yl-9-(2,2,2-trifluoroethyl)-9H-purin-2-yl]pyrimidin-2-amine]
100 to 500 nM	≤ 5000 nM	20 to 50 nM	≤ 5000 nM	≤ 5000 nM	Cc1nc(N)ncc1-c1nc(N2CCOCC2)c2nc(N3C[C@@H](C)N[C@@H](C)C3)n(CC3CC3)c2n1 [Example 15, 5-[9-(Cyclopropylmethyl)-8-(cis-3,5-dimethylpiperazin-1-yl)-6-morpholin-4-yl-9H-purin-2-yl]-4-methylpyrimidin-2-amine]
30 to 100 nM	≤ 5000 nM	20 to 50 nM	≤ 5000 nM	≤ 5000 nM	CNc1ncc(-c2nc(N3CCOCC3)c3nc(N4C[C@@H](C)N[C@@H](C)C4)n(CC4CC4)c3n2)cn1 [Example 16, 5-{9-(Cyclopropylmethyl)-8-(cis-3,5-dimethylpiperazin-1-yl)-6-morpholin-4-yl-9H-purin-2-yl}-N-methylpyrimidin-2-amine]
≥ 500 nM	–	–	–	–	Cc1nc(N(C)C)ncc1-c1nc(N2CCOCC2)c2nc(N3CCN(S(C)(=O)=O)CC3)n(CC3CC3)c2n1 [Example 44, 5-{9-(Cyclopropylmethyl)-8-[4-(methylsulfonyl)piperazin-1-yl]-6-morpholin-4-yl-9H-purin-2-yl}-N,N,4-trimethylpyrimidin-2-amine]
–	–	10 to 20 nM	–	–	Cc1nc(N)ncc1-c1nc(N2CCOCC2)c2nc(N3CCC(C(N)=O)CC3)n(CC3CC3)c2n1 [Example 47, 1-[2-(2-Amino-4-methylpyrimidin-5-yl)-9-(cyclopropylmethyl)-6-morpholin-4-yl-9H-purin-8-yl]piperidine-4-carboxamide methanesulfonate]
